Assay results published in US10568900B1, “Androgen effectors” (priority 2013, dated 2020).
Entries after “also recorded” stand apart in the source; their conditions may differ. Where two headings read alike, the source gives them in different places.

Experiments:
5-alpha-reductase = target: T1, 5-alpha-reductase (Rattus norvegicus, UniProt P24008); experiment: 5-alpha-reductase activity, conversion of testosterone to dihydrotestosterone in microsomal homogenized rat livers; type: biochemical
T1 construct: in microsomal homogenized rat livers; from tissue; host or cells: rat liver microsomes
T1 sequence (P24008 1-259): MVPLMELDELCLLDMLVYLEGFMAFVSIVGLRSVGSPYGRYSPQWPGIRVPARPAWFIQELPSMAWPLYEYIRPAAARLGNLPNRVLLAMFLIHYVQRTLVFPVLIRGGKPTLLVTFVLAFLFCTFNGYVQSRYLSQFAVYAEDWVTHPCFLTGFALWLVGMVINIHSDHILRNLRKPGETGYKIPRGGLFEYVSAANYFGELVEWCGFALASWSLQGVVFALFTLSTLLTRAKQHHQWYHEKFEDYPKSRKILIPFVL
Excerpt: Finasteride (MK906 or Proscar) was used as the positive control inhibitor.

androgen receptor (AR) = target: T2, androgen receptor (AR) (Rattus norvegicus, UniProt P15207); experiment: Androgen Receptor Binding Assay (rat prostatic cytosol), displacement of radiolabeled testosterone
T2 construct: rat prostatic cytosol as a source of androgen receptors; from tissue; host or cells: rat prostate cytosol
T2 sequence (P15207 1-902): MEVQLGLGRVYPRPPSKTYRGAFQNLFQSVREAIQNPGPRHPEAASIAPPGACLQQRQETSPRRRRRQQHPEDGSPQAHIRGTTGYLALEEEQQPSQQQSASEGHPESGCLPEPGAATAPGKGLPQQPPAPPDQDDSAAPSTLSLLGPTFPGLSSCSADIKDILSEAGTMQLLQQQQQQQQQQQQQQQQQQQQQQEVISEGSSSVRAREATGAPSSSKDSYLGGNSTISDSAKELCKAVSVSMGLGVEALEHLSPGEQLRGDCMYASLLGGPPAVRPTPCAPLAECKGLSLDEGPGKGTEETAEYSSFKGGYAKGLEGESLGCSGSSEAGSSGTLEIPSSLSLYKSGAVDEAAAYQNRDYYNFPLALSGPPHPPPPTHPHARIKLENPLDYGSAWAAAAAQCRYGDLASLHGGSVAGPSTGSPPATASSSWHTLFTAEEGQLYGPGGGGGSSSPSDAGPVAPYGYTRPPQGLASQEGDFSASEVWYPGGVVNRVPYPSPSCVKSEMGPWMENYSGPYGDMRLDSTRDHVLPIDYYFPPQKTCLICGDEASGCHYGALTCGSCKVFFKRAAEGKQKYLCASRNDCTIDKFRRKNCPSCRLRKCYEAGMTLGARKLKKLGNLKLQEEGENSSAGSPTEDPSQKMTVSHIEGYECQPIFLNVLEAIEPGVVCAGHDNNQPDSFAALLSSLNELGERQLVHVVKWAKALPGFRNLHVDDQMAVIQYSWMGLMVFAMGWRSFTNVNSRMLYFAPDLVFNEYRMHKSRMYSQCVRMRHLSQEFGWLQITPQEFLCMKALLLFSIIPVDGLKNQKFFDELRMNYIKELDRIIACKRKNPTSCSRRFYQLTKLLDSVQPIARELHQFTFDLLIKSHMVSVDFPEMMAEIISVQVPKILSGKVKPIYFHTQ
Excerpt: The Androgen Receptor Binding Assay in rat prostatic cytosol as a source of androgen receptors identifies chemicals that have the potential to interact with the androgen receptor (AR) in vitro. […] The biological action of androgens is mediated through their interaction with the AR; androgens have no hormonal activity in the absence of a functional AR. Due to a high degree of DNA sequence conservation, substances that bind the AR from rats are presumed to be capable of binding the AR in humans. (Kelce, 1998; Betney, 2003). This screening assay measures the receptor-binding affinity of chemicals by evaluating their ability to displace a bound reference androgen, showing the degree of competition for normal androgen binding and activity, either acting as an agonist or antagonist (which is not discerned by the assay).

[1] = target: T3, human androgen receptor (hAR) (Homo sapiens, UniProt P10275); experiment: Human Androgen Receptor (hAR) assay in recombinant yeast strain BJ1991 PGKhAR; type: cell-based
T3 construct: expressed in transfected cells; host or cells: recombinant yeast strain BJ1991 PGKhAR
T3 sequence (P10275 1-920): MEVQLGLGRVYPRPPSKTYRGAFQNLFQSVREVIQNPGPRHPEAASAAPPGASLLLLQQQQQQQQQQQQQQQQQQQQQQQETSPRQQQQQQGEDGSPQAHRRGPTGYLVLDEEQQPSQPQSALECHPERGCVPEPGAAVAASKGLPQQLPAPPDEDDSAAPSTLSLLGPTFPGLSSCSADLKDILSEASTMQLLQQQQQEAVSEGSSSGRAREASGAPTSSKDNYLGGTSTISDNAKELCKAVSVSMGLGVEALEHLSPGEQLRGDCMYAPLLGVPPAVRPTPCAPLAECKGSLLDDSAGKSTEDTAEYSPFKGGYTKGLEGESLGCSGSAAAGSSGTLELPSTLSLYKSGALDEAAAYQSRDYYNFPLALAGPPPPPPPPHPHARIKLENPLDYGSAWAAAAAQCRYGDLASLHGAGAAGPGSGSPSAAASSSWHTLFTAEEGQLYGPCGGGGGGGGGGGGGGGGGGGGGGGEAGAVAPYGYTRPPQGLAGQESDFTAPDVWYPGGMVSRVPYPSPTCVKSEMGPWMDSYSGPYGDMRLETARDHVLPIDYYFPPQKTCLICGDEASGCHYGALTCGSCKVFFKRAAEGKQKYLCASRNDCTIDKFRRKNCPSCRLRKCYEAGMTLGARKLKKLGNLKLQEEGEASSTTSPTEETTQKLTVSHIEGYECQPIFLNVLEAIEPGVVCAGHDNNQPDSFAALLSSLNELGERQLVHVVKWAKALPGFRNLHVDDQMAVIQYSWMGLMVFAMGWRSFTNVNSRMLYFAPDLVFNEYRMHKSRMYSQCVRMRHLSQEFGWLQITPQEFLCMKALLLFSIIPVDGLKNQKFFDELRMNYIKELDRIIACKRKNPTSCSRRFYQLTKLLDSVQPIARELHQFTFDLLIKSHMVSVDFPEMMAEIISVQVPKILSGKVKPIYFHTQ
Excerpt: Human Androgen Receptor Assay (hAR) in recombinant yeast strain BJ1991 PGKhAR which contains the human androgen receptor (hAR) gene and a built-in color-indicator to androgenicity via an androgen response element (ARE) which is linked to a gene encoding beta-galactosidase, which hydrolyses end terminal B-galactopyranosyl residues on a chlorophenol red-B-D-galactopyranoside releasing colored indicator, chlorophenol red. Thus, test solutions turn further red with androgenicity.

ERβ = target: T4, ERβ (Homo sapiens, UniProt Q92731); details: cited from earlier work
T4 construct: host or cells: yeast cells (cited work)
T4 sequence (Q92731 whole entry, species assumed): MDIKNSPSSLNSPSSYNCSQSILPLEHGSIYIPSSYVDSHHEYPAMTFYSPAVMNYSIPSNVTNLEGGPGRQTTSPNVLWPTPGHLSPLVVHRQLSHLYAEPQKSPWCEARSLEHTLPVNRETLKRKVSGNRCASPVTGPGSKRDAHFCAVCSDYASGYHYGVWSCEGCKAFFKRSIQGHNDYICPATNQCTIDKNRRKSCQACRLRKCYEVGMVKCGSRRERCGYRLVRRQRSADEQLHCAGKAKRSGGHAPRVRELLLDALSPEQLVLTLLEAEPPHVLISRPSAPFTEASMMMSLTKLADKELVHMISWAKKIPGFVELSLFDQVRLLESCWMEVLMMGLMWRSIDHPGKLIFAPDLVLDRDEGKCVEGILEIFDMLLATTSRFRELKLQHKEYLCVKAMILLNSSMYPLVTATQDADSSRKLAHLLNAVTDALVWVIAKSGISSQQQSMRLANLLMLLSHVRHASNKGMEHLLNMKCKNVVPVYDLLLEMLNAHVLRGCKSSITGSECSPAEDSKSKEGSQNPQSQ

ERα = target: T5, ERα (Homo sapiens, UniProt P03372); details: cited from earlier work
T5 construct: host or cells: yeast cells (cited work)
T5 sequence (P03372 1-595): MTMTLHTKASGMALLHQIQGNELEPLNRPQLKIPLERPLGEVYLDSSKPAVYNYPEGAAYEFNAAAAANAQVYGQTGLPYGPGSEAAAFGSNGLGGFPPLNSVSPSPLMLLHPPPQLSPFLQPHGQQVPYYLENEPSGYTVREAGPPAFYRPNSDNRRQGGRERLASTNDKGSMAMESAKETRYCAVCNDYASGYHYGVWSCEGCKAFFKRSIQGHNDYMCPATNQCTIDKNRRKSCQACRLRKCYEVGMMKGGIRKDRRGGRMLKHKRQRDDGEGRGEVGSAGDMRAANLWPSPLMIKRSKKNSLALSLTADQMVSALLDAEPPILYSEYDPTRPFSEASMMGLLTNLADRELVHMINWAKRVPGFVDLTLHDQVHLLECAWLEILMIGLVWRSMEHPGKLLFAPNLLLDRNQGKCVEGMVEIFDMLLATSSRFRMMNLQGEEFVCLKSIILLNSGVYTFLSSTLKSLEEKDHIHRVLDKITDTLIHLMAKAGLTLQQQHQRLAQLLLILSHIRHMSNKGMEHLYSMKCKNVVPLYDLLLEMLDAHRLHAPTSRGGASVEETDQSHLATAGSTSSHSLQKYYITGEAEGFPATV

yeast cells = details: cited from earlier work
[2] = cited from earlier work
[3] = rat liver microsomes, read-out: *50% Inhibition (converted)
[4] = tested at 500 μg/ml, rat prostatic cytosol

CC1(C)C=Cc2c(O)ccc(C3=Cc4ccc(O)cc4OC3)c2O1 [#1 Glabrene, Glabrene]
5-alpha-reductase inhibition, in words (5-alpha-reductase): significant 5ARI activity; also recorded: potent dihydrotestosterone reductase inhibitors
5-alpha-reductase inhibition, in words (5-alpha-reductase; listed as #1): interfere with the activity of 5-alpha-reductase
IC50 (5-alpha-reductase; read-out: IC50 (5ARI) (converted)): 15.5 µM
inhibition at 125 µg/mL (androgen receptor (AR); tested at 125 μg/ml, rat prostatic cytosol, read-out: *Specific Binding % Inhibition): 21%
*hAG (agonist) ([1]; tested at 25 μg/ml): Inactive
*hAT (antagonist) ([1]; tested at 25 μg/ml): Inactive

CC1(C)C=Cc2c(ccc3c2OC[C@@H](c2ccc(O)cc2O)C3)O1 [#4 Glabridin, Glabridin]
estrogenic response (agonism), in words (ERβ; 1×10^−7 to 1×10^−4 M): does not exert any estrogenic response
ERβ antagonism, in words (ERβ): did not have antagonistic properties
5-alpha-reductase inhibition, in words (5-alpha-reductase): significant 5ARI activity; also recorded: potent dihydrotestosterone reductase inhibitors
5-alpha-reductase inhibition, in words (5-alpha-reductase; listed as #4): interfere with the activity of 5-alpha-reductase
IC50 (5-alpha-reductase; [3]): 89.4 µM
estrogenic response (agonism), in words (ERα; 1×10^−7 to 1×10^−4 M): does not exert any estrogenic response
inhibition of the E2 response (ERα; at 6×10^−6 M, without being toxic towards yeast cells): ~80%
ERα antagonism, in words (ERα): ERα-selective antagonist
reduction of estrogenic E2 (ERα): 80%
androgen receptor binding / interference with testosterone binding, in words (androgen receptor (AR)): does not interfere with normal testosterone to androgen receptor binding
inhibition at 500 µg/mL (androgen receptor (AR); tested at 500 μg/ml, rat prostatic cytosol, read-out: *Specific Binding % Inhibition): 0%
concentration toxic to yeast cells (yeast cells): above 1×10^−4 M
*hAG (agonist) ([1]; tested at 5 μg/ml): Inactive
*hAT (antagonist) ([1]; tested at 5 μg/ml): Inactive
solubility in water, in words [2]: insoluble in water

C=CC(C)(C)c1cc(/C=C/C(=O)c2ccc(O)cc2)c(OC)cc1O [#5 Licochalcone A, Licochalcone A]
5-alpha-reductase inhibition, in words (5-alpha-reductase; listed as #5): interfere with the activity of 5-alpha-reductase
5-alpha-reductase inhibition, in words (5-alpha-reductase; listed as Licochalcone A): potent dihydrotestosterone reductase inhibitors
5-alpha-reductase inhibition, in words (5-alpha-reductase; listed as licochalcone A): significant 5ARI activity
*50% Inhibition (5-alpha-reductase; rat liver microsomes): 7 µg/mL
*Specific Binding % Inhibition (androgen receptor (AR); [4]): 21%
*hAG (agonist) ([1]; tested at 5 μg/ml): Inactive
*hAT (antagonist) ([1]; tested at 5 μg/ml): Inactive

C[C@@H](CC[C@@]1(O)O[C@H]2C[C@H]3[C@@H]4CC=C5C[C@@H](O[C@@H]6O[C@H](CO)[C@@H](O)[C@H](O[C@@H]7O[C@H](CO)[C@@H](O)[C@H](O)[C@H]7O)[C@H]6O[C@@H]6O[C@@H](C)[C@H](O)[C@@H](O)[C@H]6O)CC[C@]5(C)[C@H]4CC[C@]3(C)[C@H]2[C@@H]1C)CO[C@@H]1O[C@H](CO)[C@@H](O)[C@H](O)[C@H]1O [#9 Protogracillin, Protogracillin]
5-alpha-reductase inhibition, in words (5-alpha-reductase): did not inhibit 5AR
androgen receptor binding / interference with testosterone binding, in words (androgen receptor (AR); listed as Protogracillin): does not interfere with normal testosterone binding to receptor
androgen receptor binding / interference with testosterone binding, in words (androgen receptor (AR); listed as protogracillin): did not interfere with regular testosterone receptor binding
*Specific Binding % Inhibition (androgen receptor (AR); [4]): 0%
hAR assay activity, in words [1]: testosterone agonist activity
receptor affinity relative to cyproterone's binding affinity [1]: 1/200
*hAG (agonist) ([1]; tested at 100 μg/ml): Active (2)
*hAT (antagonist) ([1]; tested at 100 μg/ml): Inactive

CC(C)(C)NC(=O)[C@H]1CC[C@H]2[C@@H]3CC[C@H]4NC(=O)C=C[C@]4(C)[C@H]3CC[C@]12C [Finasteride Proscar Control, Finasteride, reference compound]
IC50 (5-alpha-reductase; positive control, read-out: IC50 (converted)): ~0.188 µM
IC50 (5-alpha-reductase; [3]): 0.188 µM

CC1=CCC(C(C)(C)O)CC1 (stereo not drawn) [alpha-terpineol]
5-alpha-reductase inhibition, in words (5-alpha-reductase): significant 5ARI activity

Leucoanthocyanidin [#6 Leucoanthocyanidin]
5-alpha-reductase inhibition, in words (5-alpha-reductase): significant 5ARI activity
5-alpha-reductase inhibition, in words (5-alpha-reductase; listed as #6): interfere with the activity of 5-alpha-reductase
*50% Inhibition (5-alpha-reductase; rat liver microsomes): 30 µg/mL
*Specific Binding % Inhibition (androgen receptor (AR); [4]): 28%
*hAG (agonist) ([1]; tested at 500 μg/ml): Clear
*hAT (antagonist) ([1]; tested at 500 μg/ml): Clear
